Assay results taken from US11279712B2, “Macrocyclic compounds that inhibit MCL-1 protein” (AMGEN INC., priority 2017, dated 2022).
Where two headings read alike, the source gives them in different places.

Experiments:
[1] = system: OPM-2 human multiple myeloma cell line; test: Cell Viability Assay (OPM-2 10 FBS); assay type: cell-based; settings: OPM-2 cells, CellTiter-Glo, read-out: OPM-2 10% FBS IC50 IP
Summary of the method: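 OPM-2 myeloma cells seeded at 3000 cells/well in RPMI 1640 with 10% FBS and exposed to serially diluted compounds for 16 h at 37° C., 5% CO2.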

[2] = biological target: Mcl-1/Bim interaction (recombinant human Mcl-1 residues 171-327) (Homo sapiens (Human), UniProt Q07820); test: Cell Free Mcl-1:Bim Affinity Assay (Mcl-1 HTRF); assay type: binding; settings: TR-FRET, 0.1 nM Mcl-1(171-327), 0.05 nM biotin-Bim(51-76)
Sequence of Mcl-1/Bim interaction (recombinant human Mcl-1 residues 171-327) (Q07820 171-327): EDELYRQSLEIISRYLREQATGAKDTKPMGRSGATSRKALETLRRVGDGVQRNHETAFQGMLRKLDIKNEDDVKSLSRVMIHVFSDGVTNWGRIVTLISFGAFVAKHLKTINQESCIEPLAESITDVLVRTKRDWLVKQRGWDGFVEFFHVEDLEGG
Summary of the method: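 TR-FRET competition using 0.1 nM His-tagged Mcl-1(171-327), 0.05 nM biotin-Bim(51-76), Eu anti-His and streptavidin-Xlent in 20 mM Hepes pH 7.5, 150 mM NaCl, Brij-35, 1 mM DTT. Compounds pre-incubated 60 min with protein and peptide, then overnight after detection mix; 665/620 nm ratio fitted to four-parameter curves for IC50 (duplicates).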

COCCN1CCN(C[C@H]2CCC[C@H](C)[C@@H](C)S(=O)(=O)NC(=O)c3ccc4c(c3)N(C[C@@H]3CC[C@@H]23)C[C@@]2(CCCc3cc(Cl)ccc32)CO4)CC1=O (stereo in doubt) [Example 3]
IC50 ([1]; Homo sapiens, OPM-2, 16 h): 166 nM | IC50 [2]: 0.257 nM

C[C@@H]1[C@@H](C)CCC[C@H](CN2CCN3CCOC[C@H]3C2)[C@@H]2CC[C@H]2CN2C[C@@]3(CCCc4cc(Cl)ccc43)COc3ccc(cc32)C(=O)NS1(=O)=O (stereo in doubt) [Example 14]
IC50 ([1]; Homo sapiens, OPM-2, 16 h): 268 nM | IC50 [2]: 0.291 nM

C[C@@H]1[C@@H](C)CCC[C@H](CN2CC(N(C)C)C2)[C@@H]2CC[C@H]2CN2C[C@@]3(CCCc4cc(Cl)ccc43)COc3ccc(cc32)C(=O)NS1(=O)=O (stereo in doubt) [Example 18]
IC50 ([1]; 16 h): 289 nM | IC50 [2]: 0.84 nM

C[C@@H]1[C@@H](C)CCC[C@H](CN2CCN3CCN(S(C)(=O)=O)C[C@@H]3C2)[C@@H]2CC[C@H]2CN2C[C@@]3(CCCc4cc(Cl)ccc43)COc3ccc(cc32)C(=O)NS1(=O)=O (stereo in doubt) [Example 20]
IC50 ([1]; Homo sapiens, OPM-2, 16 h): 304 nM | IC50 [2]: 1.16 nM

CC(=O)N1CCN2CCN(C[C@H]3CCC[C@H](C)[C@@H](C)S(=O)(=O)NC(=O)c4ccc5c(c4)N(C[C@@H]4CC[C@@H]34)C[C@@]3(CCCc4cc(Cl)ccc43)CO5)C[C@H]2C1 (stereo in doubt) [Example 25]
IC50 ([1]; 16 h): 329 nM | IC50 [2]: 0.252 nM

C[C@@H]1[C@@H](C)CCC[C@H](CN2CC(C)(N(C)C)C2)[C@@H]2CC[C@H]2CN2C[C@@]3(CCCc4cc(Cl)ccc43)COc3ccc(cc32)C(=O)NS1(=O)=O (stereo in doubt) [Example 27]
IC50 ([1]; 16 h): 356 nM | IC50 [2]: 0.83 nM

C[C@@H]1[C@@H](C)CCC[C@H](CC(=O)N(C)C)[C@@H]2CC[C@H]2CN2C[C@@]3(CCCc4cc(Cl)ccc43)COc3ccc(cc32)C(=O)NS1(=O)=O (stereo in doubt) [Example 28]
IC50 ([1]; Homo sapiens, OPM-2, 16 h): 364 nM | IC50 [2]: 0.287 nM

C[C@@H]1[C@@H](C)CCC[C@H](CN2CCN3CCN(S(C)(=O)=O)C[C@@H]3C2)[C@@H]2CC[C@H]2CN2C[C@@]3(CCCc4cc(Cl)ccc43)COc3ccc(cc32)C(=O)NS1(=O)=O (stereo in doubt) [Example 30]
IC50 ([1]; 16 h): 370 nM | IC50 [2]: 0.516 nM

C[C@@H]1[C@@H](C)CCC[C@H](CN2CCN3CCOC[C@@H]3C2)[C@@H]2CC[C@H]2CN2C[C@@]3(CCCc4cc(Cl)ccc43)COc3ccc(cc32)C(=O)NS1(=O)=O (stereo in doubt) [Example 32]
IC50 ([1]; 16 h): 380 nM | IC50 [2]: 0.493 nM

CC(=O)N1CCN(C[C@H]2CCC[C@H](C)[C@@H](C)S(=O)(=O)NC(=O)c3ccc4c(c3)N(C[C@@H]3CC[C@@H]23)C[C@@]2(CCCc3cc(Cl)ccc32)CO4)CC1 (stereo in doubt) [Example 33]
IC50 ([1]; 16 h): 411 nM | IC50 [2]: 0.172 nM

COCCN1CCN(C[C@H]2CCC[C@H](C)[C@@H](C)S(=O)(=O)NC(=O)c3ccc4c(c3)N(C[C@@H]3CC[C@@H]23)C[C@@]2(CCCc3cc(Cl)ccc32)CO4)CCC1=O (stereo in doubt) [Example 36]
IC50 ([1]; Homo sapiens, OPM-2, 16 h): 443 nM | IC50 [2]: 0.265 nM

COCCN1CCCN(C[C@H]2CCC[C@H](C)[C@@H](C)S(=O)(=O)NC(=O)c3ccc4c(c3)N(C[C@@H]3CC[C@@H]23)C[C@@]2(CCCc3cc(Cl)ccc32)CO4)CC1=O (stereo in doubt) [Example 42]
IC50 ([1]; Homo sapiens, OPM-2, 16 h): 593 nM | IC50 [2]: 0.408 nM

C[C@@H]1[C@@H](C)CCC[C@H](CN2CCOCC2)[C@@H]2CC[C@H]2CN2C[C@@]3(CCCc4cc(Cl)ccc43)COc3ccc(cc32)C(=O)NS1(=O)=O (stereo in doubt) [Example 55]
IC50 ([1]; 16 h): 1020 nM | IC50 [2]: 0.843 nM

C[C@@H]1[C@@H](C)C/C=C/[C@H](CN2CCOCC2)[C@@H]2CC[C@H]2CN2C[C@@]3(CCCc4cc(Cl)ccc43)COc3ccc(cc32)C(=O)NS1(=O)=O (stereo in doubt) [Example 62]
IC50 ([1]; Homo sapiens, OPM-2, 16 h): 1440 nM | IC50 [2]: 0.388 nM

C[C@@H]1[C@@H](C)CCC[C@H](CN2CCN3CCNC[C@@H]3C2)[C@@H]2CC[C@H]2CN2C[C@@]3(CCCc4cc(Cl)ccc43)COc3ccc(cc32)C(=O)NS1(=O)=O (stereo in doubt) [Example 81]
IC50 ([1]; Homo sapiens, OPM-2, 16 h): 3560 nM | IC50 [2]: 0.831 nM

C[C@@H]1[C@@H](C)CCC[C@H](C=O)[C@@H]2CC[C@H]2CN2C[C@@]3(CCCc4cc(Cl)ccc43)COc3ccc(cc32)C(=O)NS1(=O)=O [Example 60]
IC50 ([1]; 16 h): 1330 nM | IC50 [2]: 0.552 nM
